Assay results as given in patent publication US8697715B2, “Serine/threonine kinase inhibitors” (Array BioPharma Inc., priority 2012, dated 2014).

The compounds below were run on PMA-stimulated P90RSK(Ser380) phosphorylation in HepG2 cells (assay: Cellular P90RSK(Ser380) Phosphorylation Assay). Settings: Homo sapiens, read-out: Biological Example 2 IC50 (nM), 1.5 hours compound incubation, PMA 100 ng/mL 30 minutes, normalized to GAPDH, single assay or mean of multiple assays.
Type: cell-based
Procedure: Inhibition of PMA-stimulated P90RSK(Ser380) phosphorylation was determined by the following in vitro cellular mechanistic assay, which comprises incubating cells with a compound for 1.5 hours and quantifying fluorescent pP90RSK(Ser380) signal on fixed cells and normalizing to GAPDH signal.
HepG2 cells were obtained from ATCC and grown in DMEM supplemented with 10% fetal bovine serum. Cells were plated in 96-well plates at 35,000 cells/well and allowed to attach overnight at 37° C./5% CO2. Diluted compounds were then added at a final concentration of 0.5% DMSO. After 1.5 hours compound incubation, cells were stimulated with the addition of phorbol 12-myristate 13-acetate (“PMA”) at a final concentration of 100 ng/mL; the PMA stimulation was a 30-minute incubation at 37° C./5% CO2. After the 30-minute PMA stimulation, cells were washed with phosphate buffered saline (“PBS”) and fixed in 3.7% formaldehyde in PBS at room temperature for 15-20 minutes. This was followed by another wash in PBS and then permeabilization in 100% MeOH at room temperature for 10-15 minutes. Following the permeabilization incubation, cells were washed in PBS/0.05% Tween-20, followed by a block in Odyssey blocking buffer (LI-COR Biosciences) for at least 1 hour. […] Both secondary antibodies were used at a 1:1000 dilution. Cells were then washed and analyzed for fluorescence at both wavelengths using the Odyssey Infrared Imaging System (LI-COR Biosciences). Phosphorylated P90RSK(Ser380) signal was normalized to GAPDH signal.

| SMILES | IC50 [nM] |
| --- | --- |
| CC(C)(N)C(=O)OC[C@H](c1ccc(Cl)c(F)c1)n1ccc(-c2ccnc(NC3CCOCC3)n2)cc1=O [Example 290, (S)-2-(4-chloro-3-fluorophenyl)-2-(2-oxo-4-(2-((tetrahydro-2H-pyran-4-yl)amino)pyrimidin-4-yl)pyridin-1(2H)-yl)ethyl 2-amino-2-methylpropanoate] | 26.5 |
| O=c1cc(-c2ccnc(NC3CCOCC3)n2)ccn1[C@H](CO)c1cc2cc(F)ccc2[nH]1 [Example 291, (S)-1-(1-(5-fluoro-1H-indol-2-yl)-2-hydroxyethyl)-4-(2-((tetrahydro-2H-pyran-4-yl)amino)pyrimidin-4-yl)pyridin-2(1H)-one] | 55.9 |
| CC(=O)OC[C@H](c1ccc(Cl)c(F)c1)n1ccc(-c2ccnc(Nc3ccnn3C)n2)cc1=O [Example 293, (S)-2-(4-chloro-3-fluorophenyl)-2-(4-(2-((1-methyl-1H-pyrazol-5-yl)amino)pyrimidin-4-yl)-2-oxopyridin-1(2H)-yl)ethyl acetate] | 16.8 |
| C=C(c1ccc(Cl)c(F)c1)n1ccc(-c2ccnc(Nc3ccnn3CC)n2)cc1=O [Example 295, 1-(1-(4-chloro-3-fluorophenyl)vinyl)-4-(2-((1-ethyl-1H-pyrazol-5-yl)amino)pyrimidin-4-yl)pyridin-2(1H)-one] | 204 |
| NC[C@H](c1ccc(Cl)c(F)c1)n1ccc(-c2ccnc(NC3CCOCC3)n2)cc1=O [Example 305, (S)-1-(2-amino-1-(4-chloro-3-fluorophenyl)ethyl)-4-(2-((tetrahydro-2H-pyran-4-yl)amino)pyrimidin-4-yl)pyridin-2(1H)-one] | 53 |
| O=c1cc(-c2ccnc(NC3CCOCC3)n2)ccn1[C@H](COP(=O)(O)O)c1ccc(Cl)c(F)c1 [Example α, (S)-2-(4-chloro-3-fluorophenyl)-2-(2-oxo-4-(2-((tetrahydro-2H-pyran-4-yl)amino)pyrimidin-4-yl)pyridin-1(2H)-yl)ethyl dihydrogen phosphate] | 955 |
| O=c1cc(-c2ccnc(NC3CCOCC3)n2)ccn1[C@H](COCOP(=O)(O)O)c1ccc(Cl)c(F)c1 [Example β, (S)-(2-(4-chloro-3-fluorophenyl)-2-(2-oxo-4-(2-((tetrahydro-2H-pyran-4-yl)amino)pyrimidin-4-yl)pyridin-1(2H)-yl)ethoxy)methyl dihydrogen phosphate] | 99.6 |
